Results reported in patent US12435044B2, “Pyridazinone herbicides and pyridazinone intermediates used to prepare a herbicide” (FMC Corporation, priority 2018, dated 2025).

Tests used:
Assay type in all cases: in vivo
[1] = system: horseweed (Conyza canadensis); experiment: Test C postemergence greenhouse test; settings: scale 0 to 100
Outline: (§1)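 Test chemicals were formulated in a non-phytotoxic solvent mixture with surfactant and applied preemergence to seeds in silt loam soil or postemergence to plants of 2 to 18 cm in a peat/vermiculite medium. After 13 to 21 d in a greenhouse, response was visually scored from 0 (no effect) to 100 (complete control).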

[2] = system: common ragweed (AMBEL; Ambrosia artemisiifolia); experiment: Test J pre-/postemergence, mixtures of Cpd. No. 20 with (b15C2)
Excerpt: This test evaluated the effect of mixtures of Cpd. No. 20 with (b15C2) on several plant species. Seeds of plant species selected from corn (ZEAMD; Zea mays, cv. ‘Pioneer 1184’), soybean (GLXMA; Glycine max, cv. Pioneer 35T58), giant foxtail (SETFA; Setaria faberi), palmer amaranth (AMAPA; Amaranthus palmeri), common waterhemp (AMATU; Amaranthus rudis), mare's tail (ERICA; Conyza canadensis), and common ragweed (AMBEL; Ambrosia artemisiifolia) were planted in pots containing Tama Silt Loam soil and treated preemergence with a directed soil spray using test chemicals formulated in a non-phytotoxic solvent mixture which included a surfactant.
At the same time, plants selected from these crop and weed species were planted in pots containing Redi-Earth® planting medium (Scotts Company, 14111 Scottslawn Road, Marysville, Ohio 43041) comprising spaghnum peat moss, vermiculite, wetting agent and starter nutrients and treated postemergence with test chemicals formulated in the same manner. Plants ranged in height from 2 to 10 cm and were in the one- to two-leaf stage for the postemergence treatment. Treated plants and untreated controls were maintained in a greenhouse for approximately 14-21 d, after which time all treated plants were compared to untreated controls and visually evaluated for injury. Plant response ratings, summarized in Tables J1 & J2, are based on a 0 to 100 scale where 0 is no effect and 100 is complete control. A dash (-) response means no test result. Test results are presented as a mean of 4 reps.

[3] = system: corn (ZEAMD; Zea mays, cv. ‘Pioneer 1184’); experiment: Test M postemergence, mixtures of Cpd. No. 20 with isoxadifen-ethyl, cloquintocet-mexyl or Mefenpyr-diethyl; settings: approx. 14 d
Excerpt: (§2) This test evaluated the effect of mixtures of Cpd. No. 20 with isoxadifen-ethyl, or cloquintocet-mexyl, or Mefenpyr-diethyl on several plant species. Seeds of plant species selected from corn (ZEAMD; Zea mays, cv. ‘Pioneer 1184’), soybean (GLXMA; Glycine max, cv. Pioneer 35T58), winter wheat (TRZAW; Triticum aetivum, cv. Arezzo), winter barley (HORVW; Hordeum vulgare, cv. Boone), rice (ORYSS; Oryza sativa, cv. M202), and giant foxtail (SETFA; Setaria faberi) were planted in pots containing Redi-Earth® planting medium (Scotts Company, 14111 Scottslawn Road, Marysville, Ohio 43041) comprising spaghnum peat moss, vermiculite, wetting agent and starter nutrients and treated postemergence using test chemicals formulated in a non-phytotoxic solvent mixture which included a surfactant. Plants ranged in height from 7 to 10 cm and were in the one- to two-leaf stage for the postemergence treatment. Treated plants and untreated controls were maintained in a greenhouse for approximately 14 d, after which time all treated plants were compared to untreated controls and visually evaluated for injury. Plant response ratings, summarized in Tables M1 to M3, are based on a 0 to 100 scale where 0 is no effect and 100 is complete control. A dash (-) response means no test result. Test results are presented as a mean of 3 reps.

[4] = system: giant foxtail (SETFA; Setaria faberi); experiment: as above; settings: approx. 14 d
Excerpt: as §2

[5] = system: rice (ORYSS; Oryza sativa, cv. M202); experiment: as above; settings: approx. 14 d
Excerpt: as §2

[6] = system: soybean (GLXMA; Glycine max, cv. Pioneer 35T58); experiment: as above; settings: approx. 14 d
Excerpt: as §2

[7] = system: winter barley (HORVW; Hordeum vulgare, cv. Boone); experiment: as above; settings: approx. 14 d
Excerpt: as §2

[8] = system: winter wheat (TRZAW; Triticum aetivum, cv. Arezzo); experiment: as above; settings: approx. 14 d
Excerpt: as §2

[9] = system: nightshade (eastern black nightshade, Solanum ptycanthum); experiment: Test C postemergence greenhouse test; settings: scale 0 to 100
Outline: as §1

[10] = Cpd. No. 20 alone 125 g a.i./ha
[11] = Cpd. No. 20 alone 250 g a.i./ha
[12] = Cpd. No. 20 alone 375 g a.i./ha

Compound: Cc1ccc2ccc(F)cc2c1-c1c(O)c(Cl)nn(C)c1=O [Cpd. No. 21]
- Plant response rating, Horseweed ([1]; 16 g ai/ha): 80
- Plant response rating, Horseweed ([1]; 31 g ai/ha): 85
- Plant response rating, Horseweed ([1]; 62 g ai/ha): 90
- Plant response rating, Horseweed ([1]; 125 g ai/ha): 90

Compound: Cc1ccc2ccc(C)c(-c3c(O)c(Cl)nn(C)c3=O)c2c1 [Cpd. No. 20, 6-chloro-4-(2,7-dimethyl-1-naphthalenyl)-5-hydroxy-2-methyl-3(2H)-pyridazinone]
- AMBEL plant response rating, 0 to 100 scale ([2]; postemergence, 8 g a.i./ha): 86
- AMBEL plant response rating, 0 to 100 scale ([2]; postemergence, 16 g a.i./ha): 93
- AMBEL plant response rating, 0 to 100 scale ([2]; postemergence, 31 g a.i./ha): 91
- AMBEL plant response rating, 0 to 100 scale ([2]; postemergence, 62 g a.i./ha): 95
- AMBEL plant response rating, 0 to 100 scale ([2]; preemergence, 8 g a.i./ha): 0
- AMBEL plant response rating, 0 to 100 scale ([2]; preemergence, 16 g a.i./ha): 100
- AMBEL plant response rating, 0 to 100 scale ([2]; preemergence, 31 g a.i./ha): 86
- AMBEL plant response rating, 0 to 100 scale ([2]; preemergence, 62 g a.i./ha): 96
- Plant response rating (0 to 100 scale) ZEAMD ([3]; Cpd. No. 20 alone 62 g a.i./ha): 0
- Plant response rating (0 to 100 scale) ZEAMD [3, 10]: 17
- Plant response rating (0 to 100 scale) ZEAMD [3, 11]: 28
- Plant response rating (0 to 100 scale) ZEAMD [3, 12]: 33
- Plant response rating (0 to 100 scale) SETFA ([4]; Cpd. No. 20 alone 62 g a.i./ha): 96
- Plant response rating (0 to 100 scale) SETFA [4, 10]: 99
- Plant response rating (0 to 100 scale) SETFA [4, 11]: 100
- Plant response rating (0 to 100 scale) SETFA [4, 12]: 100
- Plant response rating (0 to 100 scale) ORYSS ([5]; Cpd. No. 20 alone 62 g a.i./ha): 20
- Plant response rating (0 to 100 scale) ORYSS [5, 10]: 35
- Plant response rating (0 to 100 scale) ORYSS [5, 11]: 40
- Plant response rating (0 to 100 scale) ORYSS [5, 12]: 40
- Plant response rating (0 to 100 scale) GLXMA ([6]; Cpd. No. 20 alone 62 g a.i./ha): 15
- Plant response rating (0 to 100 scale) GLXMA [6, 10]: 22
- Plant response rating (0 to 100 scale) GLXMA [6, 11]: 30
- Plant response rating (0 to 100 scale) GLXMA [6, 12]: 35
- Plant response rating (0 to 100 scale) HORVW ([7]; Cpd. No. 20 alone 62 g a.i./ha): 0
- Plant response rating (0 to 100 scale) HORVW [7, 10]: 10
- Plant response rating (0 to 100 scale) HORVW [7, 11]: 15
- Plant response rating (0 to 100 scale) HORVW [7, 12]: 20
- Plant response rating (0 to 100 scale) TRZAW ([8]; Cpd. No. 20 alone 62 g a.i./ha): 0
- Plant response rating (0 to 100 scale) TRZAW [8, 10]: 8
- Plant response rating (0 to 100 scale) TRZAW [8, 11]: 22
- Plant response rating (0 to 100 scale) TRZAW [8, 12]: 35

Compound: Cc1cc(Cl)c2ccccc2c1-c1c(O)c(Cl)nn(C)c1=O [Cpd. No. 65]
- Plant response rating, Nightshade ([9]; 16 g ai/ha): 90
- Plant response rating, Nightshade ([9]; 31 g ai/ha): 100
- Plant response rating, Nightshade ([9]; 62 g ai/ha): 100
- Plant response rating, Nightshade ([9]; 125 g ai/ha): 100
